# Patent US20240173353A1, “UNIVERSAL CHIMERIC ANTIGEN RECEPTOR T-CELL AND APPLICATION THEREOF” (SHANGHAI IASO BIOTECHNOLOGY CO., LTD., priority 2021, published 2024)
# Key:
# [1] = tested on: anti-CD19-CAR-T cells; experiment: CD107a translocation of anti-CD19-CAR-T cells co-incubated with target cells; format: cell-based, human; details: LCK-sgRNA16 editing group (43% T316I), 100 nM dasatinib 12 hr, Nalm6 target cells
# Description: First, the inventors edited the prepared anti-CD19 CAR-T by electroporation with the CBE3 protein, the RNP complex of CBE3 and LCK-sgRNA12, and the RNP complex of CBE3 and LCK-sgRNA16 respectively, to achieve three different editing treatments.
# [2] = tested on: anti-BCMA-CAR-T cells; experiment: CD107a translocation of anti-BCMA-CAR-T cells co-incubated with target cells; format: cell-based, human; details: LCK-sgRNA16 editing group (42% T316I), 100 nM dasatinib 12 hr
# [3] = tested on: T cells; experiment: UCAR-T preparation process with dasatinib added after editing; format: cell-based, human; details: experimental group, 100 nM DS added after editing
# Experimental: The inventors isolated CD3-positive T cells from PBMCs from three different donors using PanT kits, knocked out the B2M and TRAC genes, and performed LCK-T316I editing on the cells. Then the cells were divided into two portions, to one portion, 100 nM DS was added (experimental group), and to the other portion, a corresponding amount of DMSO was added as a control (control group). After 2 hr, to the experimental group and the control group, T cell activators (CD2/CD3/CD28, 25 ul/1M/mL) were added. After 48 hr of activation, the cells were infected with the anti-CD19 CAR molecule through lentivirus infection, and the medium was replaced 24 hr after the virus infection, and DS or DMSO was removed at the same time.
# [4] = tested on: anti-BCMA CAR-T cells; experiment: Luciferase killing assay of anti-BCMA CAR-T on luciferase-positive target cells; details: CBE3 and CBE3+sg12 groups, 100 nM dasatinib 12 hr, effector-to-target 1:1, 24 hr
structure (smiles),measurement,setting,value
Cc1nc(Nc2ncc(C(=O)Nc3c(C)cccc3Cl)s2)cc(N2CCN(CCO)CC2)n1 [dasatinib],positive CD107a translocation in CD8 and CAR double-positive cells,[1],50%
same,positive CD107a translocation in CD8 and CAR double-positive cells,[2]; RPMI-8226,44.7%
same,positive CD107a translocation in CD8 and CAR double-positive cells,[2]; U266B1,39.6%
same,percentage of B2M and TRAC double knockout,[3],more than 50%
same,cytotoxicity of anti-BCMA CAR-T (luciferase value of RPMI-8226),[4],significantly inhibited
